Several values for one entry are separate records, joined by “and”; a condition that tells them apart may be missing. Identical values can stand only once.
Columns and labels:
[1] = target: 5-hydroxytryptamine receptor 2B (Bos taurus, UniProt Q8MI09)
[2] = target: 5-hydroxytryptamine receptor 2A (Rattus norvegicus, UniProt P14842)
Chain of 5-hydroxytryptamine receptor 2A (P14842 whole entry): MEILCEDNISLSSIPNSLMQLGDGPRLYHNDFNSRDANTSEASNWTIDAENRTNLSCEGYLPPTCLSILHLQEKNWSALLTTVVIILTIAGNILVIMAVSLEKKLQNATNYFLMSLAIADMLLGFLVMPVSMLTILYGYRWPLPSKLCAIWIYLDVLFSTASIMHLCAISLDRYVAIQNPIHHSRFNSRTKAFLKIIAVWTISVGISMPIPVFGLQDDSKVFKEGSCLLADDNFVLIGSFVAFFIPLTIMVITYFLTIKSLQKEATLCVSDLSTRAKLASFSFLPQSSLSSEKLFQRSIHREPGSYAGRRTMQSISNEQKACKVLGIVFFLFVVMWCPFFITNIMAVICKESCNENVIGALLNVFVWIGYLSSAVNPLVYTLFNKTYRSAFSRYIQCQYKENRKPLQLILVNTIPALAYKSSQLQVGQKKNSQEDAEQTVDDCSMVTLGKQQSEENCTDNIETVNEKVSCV

Chain of 5-hydroxytryptamine receptor 2B (Q8MI09 whole entry): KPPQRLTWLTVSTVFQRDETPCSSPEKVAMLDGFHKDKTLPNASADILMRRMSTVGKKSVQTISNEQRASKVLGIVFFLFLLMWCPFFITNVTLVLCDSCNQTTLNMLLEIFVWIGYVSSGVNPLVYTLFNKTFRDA

CN(C)CCCN1c2ccccc2Sc2ccc(Cl)cc21 [[3-(2-Chloro-phenothiazin-10-yl)-propyl]-dimethyl-amine(Chlorpromazine)]
Ki [1]: 6 nM

NCCc1c[nH]c2ccccc12 [1H-indole-3-ethanamine]
Ki [2]: 11 nM | Ki [1]: 1300 nM

CN(C)CCCSc1ccccc1NC(=O)/C=C/c1ccccc1 [CINANSERIN]
Ki [2]: 7 nM | Ki [1]: 5 nM

CN(C)CCc1c[nH]c2cccc(O)c12 [4-hydroxy-N,N-dimethyltryptamine]
Ki [2]: 12 nM | Ki [1]: 450 nM

Clc1cccc(N2CCNCC2)c1 [mCPP]
Ki [2]: 21 nM | Ki [1]: 960 nM

CCc1cc(OC)c(CC(C)N)cc1OC (stereo not drawn)
Ki [1]: 80 nM

CN(C)CCc1c[nH]c2ccccc12 [2-(1H-indol-3-yl)-N,N-dimethylethanamine]
Ki [2]: 42 nM | Ki [1]: 550 nM

CCCN(CCC)C1CCc2cccc(O)c2C1 (stereo not drawn)
Ki [2]: 700 nM | Ki [1]: 5400 nM

CN1C[C@@H](NS(=O)(=O)N(C)C)C[C@@H]2c3cccc4c3c(cn4C)C[C@H]21 [MESULERGINE]
Ki [1]: 8 nM

O=C(c1ccc(F)cc1)C1CCN(CCn2c(=O)[nH]c3ccccc3c2=O)CC1 [3-(2-{4-[(4-fluorophenyl)carbonyl]piperidin-1-yl}ethyl)-1,2,3,4-tetrahydroquinazoline-2,4-dione]
Ki [1]: 2.4 nM

COc1cc(CCN)cc(OC)c1OC [3,4,5-trimethoxyphenylethylamine]
Ki [2]: 150 nM | Ki [1]: > 10000 nM

CN(C)CCc1c[nH]c2cccc(OP(=O)(O)O)c12 [psilocybin]
Ki [2]: 13 nM | Ki [1]: 600 nM

CCN(CC)C(=O)[C@@H]1C=C2c3cccc4[nH]cc(c34)C[C@H]2N(C)C1 [(4R,7R)-N,N-diethyl-6-methyl-6,11-diazatetracyclo[7.6.1.0^{2,7}.0^{12,16}]hexadeca-1(16),2,9,12,14-pentaene-4-carboxamide]
Ki [1]: 11 nM

COc1cc(CC(C)N)c(OC)cc1I (stereo not drawn) [[125I]2,5-dimethoxy-4-iodoamphetamine]
Ki [2]: 0.89 nM and 0.53 nM | Ki [1]: 100 nM and 55 nM

COc1ccc2[nH]cc(C3=CCNCC3)c2c1 [5-Methoxy-3-(1,2,3,6-tetrahydro-pyridin-4-yl)-1H-indole(RU-24969)]
Ki [1]: 1200 nM

c1ccc2nc(N3CCNCC3)ccc2c1 [2-Piperazin-1-yl-quinoline (Quipazine)]
Ki [2]: 5 nM | Ki [1]: 460 nM

COc1ccc2[nH]cc(CCN(C)C)c2c1 [3-(2-DIMETHYLAMINOETHYL)-5-METHOXYINDOLE]
Ki [2]: 14 nM | Ki [1]: 1300 nM

COc1cc(CC(C)N)c(OC)cc1C (stereo not drawn) [(+/-)2-(2,5-Dimethoxy-4-methyl-phenyl)-1-methyl-ethylamine]
Ki [2]: 4.8 nM | Ki [1]: 400 nM

NCCc1c[nH]c2ccc(C(N)=O)cc12 [[3H]-5-carboxamidotryptamine]
Ki [1]: > 10000 nM

CN1C2CCC1CC(OC(=O)c1c[nH]c3ccccc13)C2 (stereo not drawn)
Ki [2]: > 10000 nM | Ki [1]: 2600 nM

From BindingDB's records for PubMed 2795135 (Stanford University, 1989)
